From patent US20230183248A1, “PYRROLO[1,2-D][1,2,4]TRIAZINE-2-YL-ACETAMIDES AS INHIBITORS OF THE NLRP3 INFLAMMASOME PATHWAY” (JANSSEN PHARMACEUTICA NV, priority 2020, published 2023)

Experiments:
[1] = tested on: TNF; test: PBMC assay: LPS-stimulated TNF cytokine levels; assay type: cell-based; settings: Homo sapiens, PBMC, human PBMCs, 30 min compound pre-incubation, 100 ng/ml LPS for 6 hrs, supernatant, MSD
Procedure: (§1) Peripheral venous blood was collected from healthy individuals and human peripheral blood mononuclear cells (PBMCs) were isolated from blood by Ficoll-Histopaque (Sigma-Aldrich, A0561) density gradient centrifugation. After isolation, PBMCs were stored in liquid nitrogen for later use. Upon thawing, PBMC cell viability was determined in growth medium (RPMI media supplemented with 10% fetal bovine serum, 1% Pen-Strep and 1% L-glutamine). Compounds were spotted in a 1:3 serial dilution in DMSO and diluted to the final concentration in 30 µl medium in 96 well plates (Falcon, 353072). PBMCs were added at a density of 7.5 × 10^4 cells per well and incubated for 30 min in a 5% CO2 incubator at 37° C. LPS stimulation was performed by addition of 100 ng/ml LPS (final concentration, Invivogen, tlrl-smlps) for 6 hrs followed by collection of cellular supernatant and the analysis of IL-1β […] and TNF cytokines levels (µM) via MSD technology according to manufacturers’ guidelines (MSD, K151A0H).
(§2) The IC50 values (for IL-1β) and EC50 values (TNF) were obtained on compounds of the invention/examples, and are depicted in the following table: […]

[2] = tested on: IL-1β; test: PBMC assay: LPS-stimulated IL-1β release; assay type: cell-based; settings: human PBMCs, 30 min compound pre-incubation, 100 ng/ml LPS for 6 hrs, supernatant, MSD
Procedure: as §1, §2

Compound | EC50 [1] | melting point | IC50 ([2]; Homo sapiens, PBMC) | IC50 [2]
CC(C)c1nn(CC(=O)Nc2ccncn2)c(=O)c2cc(-c3ccccc3)cn12 [Compound 47F] | > 10 µM | 209.7 °C | > 10 µM | –
CC(C)c1nn(CC(=O)Nc2ccncn2)c(=O)c2cc(C3CC3)cn12 [Compound 50F] | > 10 µM | 182.51 °C | ~0.38 µM | –
COCc1nn(CC(=O)Nc2ccncn2)c(=O)c2cc(C(C)C)cn12 [Compound 63F] | > 10 µM | 201.37 °C | 1.37 µM | –
CC(C)c1cc2c(=O)n(CC(=O)N[C@H]3C[C@@](C)(O)C3)nc(C(C)C)n2c1 [Compound 68F] | > 10 µM | 196.59 °C | 0.16 µM | –
CC(C)c1nn(CC(=O)Nc2ccncn2)c(=O)c2cc(F)cn12 [Compound 7F] | > 10 µM | 194.5 °C | > 10 µM | –
C=C(OC)c1nn(CC(=O)Nc2ccncn2)c(=O)c2cc(C(C)C)cn12 [Compound 27F, 2-[7-isopropyl-4-(1-methoxyvinyl)-1-oxo-pyrrolo[1,2-d][1,2,4]triazin-2-yl]-N-pyrimidin-4-yl-acetamide] | > 10 µM | 201.01 °C | 1.89 µM | –
CC(=O)c1nn(CC(=O)Nc2ccncn2)c(=O)c2cc(C(C)C)cn12 [Compound 35F, 2-(4-acetyl-7-isopropyl-1-oxo-pyrrolo[1,2-d][1,2,4]triazin-2-yl)-N-pyrimidin-4-yl-acetamide] | > 10 µM | 284.78 °C | > 10 µM | –
CC(C)c1cc2c(=O)n(CC(=O)Nc3ccncn3)nc(N(C)C)n2c1 [Compound 55F] | > 10 µM | 166.33 °C | 0.36 µM | –
CCc1nn(CC(=O)Nc2ccccc2OC)c(=O)c2cccn12 [Compound 13F] | > 10 µM | 167.68 °C | > 10 µM | –
C=C(C)c1cc2c(=O)n(CC(=O)Nc3ccncn3)nc(C(C)C)n2c1 [Compound 16F, 2-(4-isopropyl-1-oxo-7-(prop-1-en-2-yl)pyrrolo[1,2-d][1,2,4]triazin-2(1H)-yl)-N-(pyrimidin-4-yl)acetamide] | > 10 µM | 185.03 °C | 3.7 µM | –
CC(C)c1cc2c(=O)n(CC(=O)Nc3ccncn3)nc(C(C)O)n2c1 (stereo not shown) [Compound 36F, 2-[4-(1-hydroxyethyl)-7-isopropyl-1-oxo-pyrrolo[1,2-d] [1,2,4]triazin-2-yl]-N-pyrimidin-4-yl-acetamide] | > 10 µM | 247.56 °C | 5.05 µM | –
CC(C)c1cc2c(=O)n(CC(=O)NC3CCOCC3)nc(C(C)C)n2c1 [Compound 51F] | > 10 µM | 181.03 °C | ~1.77 µM | –
COCCc1nn(CC(=O)Nc2ccncn2)c(=O)c2cc(C(C)C)cn12 [Compound 24F] | > 10 µM | 184.19 °C | 0.89 µM | –
CCc1cc2c(=O)n(CC(=O)Nc3ccncn3)nc(N(C)CC)n2c1 [Compound 74F] | > 10 µM | 156.3 °C | 1.4 µM | –
CC(C)c1nn(CC(=O)NC2CCOCC2)c(=O)c2cc(-c3ccccc3)cn12 [Compound 48F] | > 10 µM | 217.95 °C | > 10 µM | –
CC(=O)NC(C)c1nn(CC(=O)Nc2ccncn2)c(=O)c2cc(C(C)C)cn12 (stereo not shown) [Compound 65F] | > 10 µM | 279.37 °C | 7.08 µM | 6.9 µM
CC(=O)c1cc2c(=O)n(CC(=O)Nc3ccncn3)nc(C(C)C)n2c1 [Compound 85F, 2-(7-acetyl-4-isopropyl-1-oxopyrrolo[1,2-d][1,2,4]triazin-2(1H)-yl)-N-(pyrimidin-4-yl)acetamide] | > 10 µM | 262.3 °C | > 10 µM | –
CCN(C)c1nn(CC(=O)Nc2ccncn2)c(=O)c2cc(C(C)C)cn12 [Compound 26F] | > 10 µM | 150.14 °C | 1.32 µM | –
C/C(=N/O)c1nn(CC(=O)N[C@H]2C[C@@](C)(O)C2)c(=O)c2cc(C(C)C)cn12 [Compound 64F] | > 10 µM | 224.87 °C | 0.32 µM | –
CC(C)c1nn(CC(=O)Nc2ccncc2F)c(=O)c2cc(Cl)cn12 [Compound 9F] | > 10 µM | 211.91 °C | 3.4 µM | –
CCc1cc2c(=O)n(CC(=O)Nc3ccncn3)nc(N(C)C)n2c1 [Compound 73F, 2-(4-(dimethylamino)-7-ethyl-1-oxopyrrolo[1,2-d][1,2,4]triazin-2(1H)-yl)-N-(pyrimidin-4-yl)acetamide] | > 10 µM | 178.1 °C | 0.35 µM | –
CCCCc1nn(CC(=O)Nc2ccncn2)c(=O)c2cc(C(C)C)cn12 [Compound 61F] | > 10 µM | 166.41 °C | 1.01 µM | –
